Molecules are shown by their SMILES. pEC50: −log10 of the molar value.

The first assay deals with T1, human GPR40 receptor (Homo sapiens, UniProt O14842). Description: Assay I: IP1 accumulation (IPOne assay system) in 1321N1 cells stably expressing human GPR40 receptor. The class given is cell-based. The following applies: stimulated 1 hour at 37° C., 10% CO2, LiCl 50 mM. The protocol: IP1 accumulation measurements using the IPOne assay system—1321N1 cells stably expressing human GPR40 receptor (Euroscreen, Belgium) are seeded 24 h before the assay in black clear-bottom collagen-coated 384-well plates in culture medium containing 10% FCS, 1% Na-Pyruvate and 400 μg/mL G418. IP1 is assayed according to the Manufacturer's description (Cisbio Bioassays, France). In brief, the assay is started by substitution of the culture medium by stimulation buffer (Hepes 10 mM, CaCl2 1 mM, MgCl2 0.5 mM, KCl 4.2 mM, NaCl 146 mM and glucose 5.5 mM, pH 7.4) without LiCl. Cells are stimulated for 1 hour at 37° C., 10% CO2 by addition of the compounds that are diluted in stimulation buffer containing LiCl yielding a final LiCl concentration of 50 mM. Assays are stopped by adding HTRF-conjugates (IP1-d2 and Anti-IP1 cryptate Tb) and lysis buffer, provided by the manufacturer. After an incubation time of 1 hour at room temperature plates are measured using an EnVision™, Perkin Elmer. The obtained fluorescence ratios at 665/615 nM are then used to calculate the pEC50 values using GraphPad Prism 5 (Graphpad Software Inc, USA) by interpolation using an IP1 reference curve and subsequent sigmoidal curve fitting allowing for a variable hill slope.
T1 sequence (O14842 whole entry): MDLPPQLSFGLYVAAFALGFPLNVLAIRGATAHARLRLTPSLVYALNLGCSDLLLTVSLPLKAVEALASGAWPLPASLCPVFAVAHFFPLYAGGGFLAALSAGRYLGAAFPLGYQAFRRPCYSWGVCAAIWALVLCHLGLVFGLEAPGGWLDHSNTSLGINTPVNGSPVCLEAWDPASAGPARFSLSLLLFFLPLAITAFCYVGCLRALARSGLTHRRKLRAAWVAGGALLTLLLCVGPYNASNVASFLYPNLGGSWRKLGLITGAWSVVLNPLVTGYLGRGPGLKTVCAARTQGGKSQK
For the compound `N#Cc1ccc2c(c1Cc1ccccc1)CC[C@H]2Oc1ccc2c(c1)OC[C@H]2CC(=O)O` [Example 1, {(S)-6-[(R)-4-Benzyl-5-cyano-indan-1-yloxy]-2,3-dihydro-benzofuran-3-yl}-acetic acid], the pEC50 (commonly −log10 of the EC50, conventionally taken in molar units) is 8.30. With `N#Cc1ccc2c(c1Cc1ccc(Cl)nc1)CC[C@H]2Oc1ccc2c(c1)OC[C@H]2CC(=O)O` [Example 2, {(S)-6-[(R)-4-(6-Chloro-pyridin-3-ylmethyl)-5-cyano-indan-1-yloxy]-2,3-dihydro-benzofuran-3-yl}-acetic acid], the pEC50 is 7.44. For the compound `COc1cccc(Cc2c(C#N)ccc3c2CC[C@H]3Oc2ccc3c(c2)OC[C@H]3CC(=O)O)c1` [Example 3, {(S)-6-[(R)-5-Cyano-4-(3-methoxy-benzyl)-indan-1-yloxy]-2,3-dihydro-benzofuran-3-yl}-acetic acid], the pEC50 was 7.62. The same measure, in the same setting: then `COc1ccc(Cc2c(C#N)ccc3c2CC[C@H]3Oc2ccc3c(c2)OC[C@H]3CC(=O)O)cc1` [Example 4, {(S)-6-[(R)-5-Cyano-4-(4-methoxy-benzyl)-indan-1-yloxy]-2,3-dihydro-benzofuran-3-yl}-acetic acid], with 8.30; and `Cc1cccc(C)c1Cc1c(C#N)ccc2c1CC[C@H]2Oc1ccc2c(c1)OC[C@H]2CC(=O)O` [Example 5, {(S)-6-[(R)-5-Cyano-4-(2,6-dimethyl-benzyl)-indan-1-yloxy]-2,3-dihydro-benzofuran-3-yl}-acetic acid], with 8.22. As to `Cc1ccccc1Cc1c(C#N)ccc2c1CC[C@H]2Oc1ccc2c(c1)OC[C@H]2CC(=O)O` [Example 6, {(S)-6-[(R)-5-Cyano-4-(2-methyl-benzyl)-indan-1-yloxy]-2,3-dihydro-benzofuran-3-yl}-acetic acid], the pEC50 is 8.10. The compound `CSc1ccc(Cc2c(C#N)ccc3c2CC[C@H]3Oc2ccc3c(c2)OC[C@H]3CC(=O)O)cc1` [Example 7, {(S)-6-[(R)-5-Cyano-4-(4-methylsulfanyl-benzyl)-indan-1-yloxy]-2,3-dihydro-benzofuran-3-yl}-acetic acid] had a pEC50 of 7.74.

Compound `CS(=O)(=O)c1ccc(Cc2c(C#N)ccc3c2CC[C@H]3Oc2ccc3c(c2)OC[C@H]3CC(=O)O)cc1` [Example 8, {(S)-6-[(R)-5-Cyano-4-(4-methylsulfonyl-benzyl)-indan-1-yloxy]-2,3-dihydro-benzofuran-3-yl}-acetic acid] gave a pEC50 of 6.49. In turn, `N#Cc1cccc(Cc2c(C#N)ccc3c2CC[C@H]3Oc2ccc3c(c2)OC[C@H]3CC(=O)O)c1` [Example 9, {(S)-6-[(R)-5-Cyano-4-(3-cyano-benzyl)-indan-1-yloxy]-2,3-dihydro-benzofuran-3-yl}-acetic acid] showed a pEC50 of 7.54. Against the preceding compound, the pEC50 is 1.05 log units higher. For `O=C(O)C[C@@H]1COc2cc(O[C@@H]3CCc4c3ccc(C(F)(F)F)c4Cc3ccccc3)ccc21` [Example 10, {(S)-6-[(R)-4-Benzyl-5-trifluoromethyl-indan-1-yloxy]-2,3-dihydro-benzofuran-3-yl}-acetic acid], the pEC50 was 8.52. In turn, `N#Cc1ccc2c(c1Cc1ccc(O)cc1)CC[C@H]2Oc1ccc2c(c1)OC[C@H]2CC(=O)O` [Example 11, {(S)-6-[(R)-5-Cyano-4-(4-hydroxy-benzyl)-indan-1-yloxy]-2,3-dihydro-benzofuran-3-yl}-acetic acid] gave a pEC50 of 7.92. This pEC50 lies 0.60 log units lower than the previous one. `C[S+]([O-])c1ccc(Cc2c(C#N)ccc3c2CC[C@H]3Oc2ccc3c(c2)OC[C@H]3CC(=O)O)cc1` (stereo partly drawn) [Example 12, {(S)-6-[(R)-5-Cyano-4-(4-methylsulfinyl-benzyl)-indan-1-yloxy]-2,3-dihydro-benzofuran-3-yl}-acetic acid] had a pEC50 of 6.32.

On to `COc1ccc(Cc2ccc(F)c3c2CC[C@H]3Oc2ccc3c(c2)OC[C@H]3CC(=O)O)cc1` [Example 13, {(S)-6-[(R)-7-Fluoro-4-(4-methoxybenzyl)-indan-1-yloxy]-2,3-dihydrobenzofuran-3-yl}acetic acid], for which the pEC50 was 8.30.

As for `COc1cccc(Cc2ccc(F)c3c2CC[C@H]3Oc2ccc3c(c2)OC[C@H]3CC(=O)O)c1` [Example 14, {(S)-6-[(R)-7-Fluoro-4-(3-methoxybenzyl)-indan-1-yloxy]-2,3-dihydrobenzofuran-3-yl}-acetic acid], the pEC50 was 8.40. In turn, `O=C(O)C[C@@H]1COc2cc(O[C@@H]3CCc4c(Cc5ccc(Cl)nc5)ccc(F)c43)ccc21` [Example 15] had a pEC50 of 7.46. On to `O=C(O)C[C@@H]1COc2cc(O[C@@H]3CCc4c(Cc5ccccc5)ccc(F)c43)ccc21` [Example 16, {(S)-6-[(R)-4-Benzyl-7-fluoro-indan-1-yloxy]-2,3-dihydrobenzofuran-3-yl}-acetic acid], for which the pEC50 was 8.30.

In a further assay the target is T1, human GPR40 receptor. Description: Assay II: IP1 accumulation (IPOne assay system) in 1321N1 cells stably expressing human GPR40 receptor. Particulars: stimulated 1 h at 37° C., 5% CO2, LiCl 50 mM. It is filed as cell-based. The protocol: IP1 accumulation measurements using the IPOne assay system—1321N1 cells stably expressing human GPR40 receptor (Euroscreen, Belgium) are seeded 24 h before the assay in white 384-well plates in culture medium containing 10% FCS, 1% Na-Pyruvate and 400 μg/mL G418. IP1 is assayed according to the manufacturer's description (Cisbio Bioassays, France). In brief, the assay is started by substitution of the culture medium by stimulation buffer (Hepes 10 mM, CaCl2 1 mM, MgCl2 0.5 mM, KCl 4.2 mM, NaCl 146 mM, glucose 5.5 mM and LiCl 50 mM, pH 7.4). Cells are stimulated for 1 h at 37° C., 5% CO2 by addition of the compounds that are diluted in stimulation buffer containing LiCl. Assays are stopped by adding HTRF-conjugates (IP1-d2 and Anti-IP1 cryptate Tb) and lysis buffer, provided by the manufacturer. After an incubation time of 1 h at room temperature plates are measured using an EnVision™, Perkin Elmer. The obtained fluorescence ratios at 665/615 […] are then used to calculate the pEC50 values using Assay Explorer 3.3 Software (Accelrys, Inc.) by interpolation using an IP1 reference curve and subsequent sigmoidal curve fitting allowing for a variable hill slope.
`O=C(O)C[C@@H]1COc2cc(O[C@@H]3CCc4c3ccc(C(F)(F)F)c4Cc3ccc(F)cc3)ccc21` [Example 30, {(S)-6-[(R)-4-(4-Fluoro-benzyl)-5-trifluoromethyl-indan-1-yloxy]-2,3-dihydrobenzofuran-3-yl}-acetic acid] gave a pEC50 of 8.70. `O=C(O)C[C@@H]1COc2cc(O[C@@H]3CCc4c3ccc(C(F)(F)F)c4Cc3ccccc3F)ccc21` [Example 31, {(S)-6-[(R)-4-(2-Fluoro-benzyl)-5-trifluoromethyl-indan-1-yloxy]-2,3-dihydrobenzofuran-3-yl}-acetic acid] gave a negative logarithm of the EC50 (pEC50) of 8.70. Take `N#Cc1ccc2c(c1Cc1cccc(F)c1F)CC[C@H]2Oc1ccc2c(c1)OC[C@H]2CC(=O)O` [Example 32, {(S)-6-[(R)-5-Cyano-4-(2,3-difluoro-benzyl)-indan-1-yloxy]-2,3-dihydro-benzofuran-3-yl}-acetic acid]: the pEC50 was 8.10. Take `COc1ccc(Cc2c(C(F)(F)F)ccc3c2CC[C@H]3Oc2ccc3c(c2)OC[C@H]3CC(=O)O)cc1` [Example 33, {(S)-6-[(R)-4-(4-Methoxy-benzyl)-5-trifluoromethyl-indan-1-yloxy]-2,3-dihydrobenzofuran-3-yl}-acetic acid]: the pEC50 is 8.70.

Regarding `N#Cc1cccc(Cc2c(C(F)(F)F)ccc3c2CC[C@H]3Oc2ccc3c(c2)OC[C@H]3CC(=O)O)c1` [Example 34, {(S)-6-[(R)-4-(3-Cyano-benzyl)-5-trifluoromethyl-indan-1-yloxy]-2,3-dihydrobenzofuran-3-yl}-acetic acid], the negative logarithm of the EC50 (pEC50) is 8.40.

Compound `Cc1ccccc1Cc1c(C(F)(F)F)ccc2c1CC[C@H]2Oc1ccc2c(c1)OC[C@H]2CC(=O)O` [Example 35, {(S)-6-[(R)-4-(2-Methyl-benzyl)-5-trifluoromethyl-indan-1-yloxy]-2,3-dihydrobenzofuran-3-yl}-acetic acid] showed a pEC50 of 8.70. Compared with the last compound, the pEC50 is 0.30 log units higher.

For the compound `N#Cc1ccccc1Cc1c(C(F)(F)F)ccc2c1CC[C@H]2Oc1ccc2c(c1)OC[C@H]2CC(=O)O` [Example 36, {(S)-6-[(R)-4-(2-Cyano-benzyl)-5-trifluoromethyl-indan-1-yloxy]-2,3-dihydrobenzofuran-3-yl}-acetic acid], the pEC50 was 8.70. On to `O=C(O)C[C@@H]1COc2cc(O[C@@H]3CCc4c3ccc(C(F)(F)F)c4Cc3ccc(Cl)cc3)ccc21` [Example 37, {(S)-6-[(R)-4-(4-Chloro-benzyl)-5-trifluoromethyl-indan-1-yloxy]-2,3-dihydrobenzofuran-3-yl}-acetic acid], for which the pEC50 is 8.40.

`COc1ccc(Cc2c(C(F)(F)F)ccc3c2CC[C@H]3Oc2ccc3c(c2)OC[C@H]3CC(=O)O)cn1` [Example 38] gave a pEC50 of 9.00. `COc1ccc(OC)c(Cc2c(C(F)(F)F)ccc3c2CC[C@H]3Oc2ccc3c(c2)OC[C@H]3CC(=O)O)c1` [Example 40, {(S)-6-[(R)-4-(2,5-Dimethoxy-benzyl)-5-trifluoromethyl-indan-1-yloxy]-2,3-dihydrobenzofuran-3-yl}-acetic acid]: the pEC50 was 8.30.

The values above are taken from patent US8809376B2, “Indanyloxydihydrobenzofuranylacetic acids” (Boehringer Ingelheim International GmbH, priority 2012, dated 2014).
